Experimental data from US20130303497A1, “DEUTERATED 5-HT1A RECEPTOR AGONISTS” (priority 2010, published 2013).
Like-named read-outs stand apart in the source and are kept apart here.

Experiments:
in vitro = details: pH 7.4
Method: The mixture of compound and microsome was pre-incubated for 30 minutes, initiating the reaction by addition of NADPH regenerating system (1 unit/mL Isocitric dehydrogenase). At time point 0, 5, 15, 30, 45 and 60 minutes the reactions were stopped by addition of 300 μL cold acetonitrile ([…]) containing 100 ng/mL tolbutamide as internal standard (IS). The samples were immediately mixed and centrifuged at 4000 rpm for 20 min. 100 μL supernatant was transferred to a fresh 96-well containing 300 μL HPLC-grade water for quantitative analysis by LC-MS/MS (LC: Shimatzu LC 10 AD; MS/MS detection: Sciex API4000), using positive ion electrospray. Triplicate experiments (n=3) was performed for each compound. A single-exponential curve (Ct=C0*e^−kt) was fitted to the concentration-time data points to calculate the elimination rate constant (k). The following equation 1 was used to calculate the total hepatic intrinsic clearance (CLint): […]

[1] = Plasma protein binding, equilibrium dialysis; assay type: in vitro ADME; details: human plasma dialysed against phosphate buffer, pH 7.4, mass recovery from the dialysis device
Method: (§1) Human plasma was obtained from Bioreclamation (Lot No. BRH354026). A 96-Well Micro-equilibrium Dialysis Device (HT-Dialysis LLC, Model HTD 96 b) separated by dialysis membrane (MWCO 12-14k, HT Dialysis), was used to study the protein binding. The dialysis membrane strips were soaked in distilled water for 1 hour and then in 20% ethanol in water (v/v) for another 20 minutes. The membrane strips were subsequently rinsed 20 min in pure water before use. The studied compounds were individually spiked into human plasma to a final concentration of 0.2 μM, and pre-incubated for 30 min. Aliquots (150 μL) of phosphate buffer (100 mM sodium phosphate, pH 7.4) and spiked plasma was placed in the receiver and donor compartment, respectively. The dialysis block was sealed and placed in a shaker (150 rpm) for 6 hours at 37° C. Each experiment was performed in triplicates (n=3). Aliquot 50 μL from both the donor sides and receiver sides of the dialysis devise was transferred into new sample preparation plates and mixed with the aliquots with same volume of opposite matrixes (blank buffer to plasma and visa verse). […] Hundred μL of the supernatant was transferred to a new 96-well plate and mixed with 200 μL of Milli-Q water containing 0.1% FA. Drug content was quantified with LC/MS/MS (Sciex API4000).
(§2) Percent bound to plasma is calculated as follows:
(§3) % Bound=100−(100×[Receiver]6h/[Donor]6h.) Equation 2
(§4) Mass recovery of test compound from the HTDialysis after 6 h is calculated as follows:
(§5) % Recovery=100×([Donor]6h+[Receiver]6h)/[Donor]0h Equation 3

human plasma proteins = test: Plasma protein binding, equilibrium dialysis; assay type: in vitro ADME; details: for degree of protein binding in human plasma compared to tandospirone: One-way ANOVA with Dunnett's test vs Tandospirone
Method: as §1, §2, §3, §4, §5

MDR1-MDCK cell monolayer = test: Permeability over MDR1-transfected MDCK cell monolayer; assay type: in vitro ADME, Canine
Method: (§6) The ability of molecules to pass a biological membrane, like the gastro-intestinal epithelia and the blood-brain barrier endothelia is essential for orally delivered drugs targeting diseases in the brain. The Madin-Darby Canine Kidney (MDCK) cell line is used as an industry standard to evaluate biomembrane passage properties of drugs. […] Test compounds were diluted with the transport buffer (HBSS+1% BSA) from a 10 mM stock solution to a concentration of 2 μM and applied to the apical (A) or basolateral (B) side of the cell monolayer.
(§7) In addition, the efflux ratio of each compound was also determined.
(§8) The apparent biomembrane permeability coefficient Papp (cm/s) was calculated using the equation:
(§9) Papp=(dCr/dt)×Vr/(A×C0) Equation 4
(§10) Where dCr/dt is the cumulative concentration of compound in the receiver chamber as a function of time (μM/s); Vr is the solution volume in the receiver chamber (0.075 mL on the apical side, 0.25 mL on the basolateral side); A is the surface area for the transport, i.e. 0.084 cm2 for the area of the monolayer; Co is the initial concentration in the donor chamber.
(§11) The efflux ratio was calculated using the equation:
(§12) Efflux Ratio=Papp(BA)/Papp(AB) Equation 5
(§13) Percent recovery was calculated using the equation:
(§14) % Recovery=100×[(Vr×Cr)+(Vd×Cd)]/(Vd×C0) Equation 6
(§15) Where Vd is the volume in the donor chambers (0.075 mL on the apical side, 0.25 mL on the basolateral side); Cd and Cr are the final concentrations of transport compound in donor and receiver chambers, respectively.

[2] = as above; assay type: in vitro ADME, Canine; details: dog; MDR1-MDCK cell monolayer, 2 μM, 150-minute incubation, apical to basolateral
Method: as §6, §7, §8, §9, §10, §11, §12, §13, §14, §15

MDR1 (P-gp) = test: as above; assay type: in vitro ADME, Canine; details: dog, donor and receiver chamber, MDR1-MDCK monolayer, 2 μM
Method: as §6, §7, §8, §9, §10, §11, §12, §13, §14, §15

[3] = in humans; Nakashima and Kanemaru 1992; cited from earlier work
plasma proteins = details: Miller et al., 1992; cited from earlier work
[4] = system: serotonin 5-HT1A receptor; details: partial agonist; Tanaka et al. 1995 and Yabuuchi et al. 2004; cited from earlier work
[5] = molecular target: serotonin 5-HT1A receptor; details: Hamik et al. 1990; read-out: Ki affinity value; cited from earlier work
[6] = pH 7.4, 0.2 μM, equilibrium dialysis, 37° C., n=3, read-out: Protein binding (%) (converted)

With `[2H]C([2H])(CCCN1C(=O)[C@@H]2[C@@H]3CC[C@@H](C3)[C@@H]2C1=O)N1CCN(c2ncccn2)CC1` [Compound II, (1R,2R,6S,7S)-4-{4-[4-(pyrimidin-2-yl)piperazin-1-yl]-(4,4-^2H2)butyl}-4-azatricyclo[5.2.1.0^2,6]decane-3,5-dione] the CLint scaled at 1 μM (in vitro; human, microsomes) was 235 mL/min/kg, the recovery at 6 h, 0.2 μM [1] was 95% and the “degree of protein binding in human plasma compared to tandospirone” value (“degree … compared to tandospirone” below) (human plasma proteins) was “statistically significant lower degree of protein binding”. For the same compound, the fraction unbound at 6 h, 0.2 μM (human plasma proteins; [6]) was 0.42.

For `O=C(O)Cc1ccccc1Nc1c(Cl)cccc1Cl` [Diclofenac, reference compound], the CLint scaled at 1 μM (in vitro; human, microsomes) was 90 mL/min/kg.

In the case of `[2H]c1cnc(N2CCN(C([2H])CCCN3C(=O)[C@@H]4[C@@H]5CC[C@@H](C5)[C@@H]4C3=O)CC2)nc1` (stereo partly drawn) [IX, (1R,2R,6S,7S)-4-{4-[4-((5-^2H)pyrimidin-2-yl)piperazin-1-yl]-(4-^2H)butyl}-4-azatricyclo[5.2.1.0^2,6]decane-3,5-dione], the “degree … compared to tandospirone” value (human plasma proteins) is reported as “statistically significant lower degree of protein binding”.

With `CC(C)NCC(O)COc1cccc2ccccc12` (stereo not drawn) [Propranolol] the B-A/A-B efflux ratio (MDR1-MDCK cell monolayer; MDR1-MDCK cell monolayer, 2 μM) was 62 and the “Papp, A-B (×10^−6 cm/s)” value (MDR1-MDCK cell monolayer; MDR1-MDCK cell monolayer, 2 μM, 150-minute incubation, apical to basolateral) was 15 ×10^−6 cm/s.

For `[2H]c1cnc(N2CCN(C([2H])([2H])CCCN3C(=O)[C@@H]4[C@@H]5CC[C@@H](C5)[C@@H]4C3=O)CC2)nc1` [Compound III, (1R,2R,6S,7S)-4-{4-[4-((5-^2H)pyrimidin-2-yl)piperazin-1-yl]-(4,4-^2H2)butyl}-4-azatricyclo[5.2.1.0^2,6]decane-3,5-dione], the Papp A→B at 150 min, 2 μM [2] was 35 ×10⁻⁶ cm/s, the recovery at 150 min, 2 μM (MDR1 (P-gp); MDCK-MDR1 cell monolayer) was 112% and the “Papp, A-B compared to tandospirone” value (MDR1-MDCK cell monolayer; P<0.05, One-way ANOVA with Dunnett's test) was “statistically significant higher Papp, A-B”. For the same compound, the CLint scaled at 1 μM (in vitro; human, microsomes) was 219 mL/min/kg, the recovery at 6 h, 0.2 μM [1] was 86% and the “degree … compared to tandospirone” value (human plasma proteins) was “statistically significant lower degree of protein binding”. For the same compound, the fraction unbound at 6 h, 0.2 μM (human plasma proteins; [6]) was 0.51.

`CC(Cc1ccc(O)cc1)NCC(O)c1cc(O)cc(O)c1` (stereo not drawn) [Fenoterol] gave a Papp A→B at 150 min, 2 μM [2] of 0.92 ×10⁻⁶ cm/s and a recovery at 150 min, 2 μM (MDR1 (P-gp)) of 109%.

Compound `C[C@]12CC[C@H]3[C@@H](CCC4=CC(=O)CC[C@@]43C)[C@@H]1CC[C@@H]2O` [Testosterone, reference compound] has a CLint scaled at 1 μM (in vitro) of 70 mL/min/kg.

`[2H]C([2H])(CCCN1C(=O)[C@@]2([2H])[C@H]3CC[C@H](C3)[C@@]2([2H])C1=O)N1CCN(c2ncccn2)CC1` [Compound XV, (1R,2R,6S,7S)-4-{4-[4-(pyrimidin-2-yl)piperazin-1-yl]-(4-^2H2)butyl}-(2,6-^2H2)-4-azatricyclo[5.2.1.0^2,6]decane-3,5-dione] showed a CLint scaled at 1 μM (in vitro; human, microsomes) of 229 mL/min/kg, a recovery at 6 h, 0.2 μM [1] of 92% and a fraction unbound at 6 h, 0.2 μM (human plasma proteins; [6]) of 0.38.

In the case of `[2H]C([2H])(CN1C(=O)[C@@H]2[C@@H]3CC[C@@H](C3)[C@@H]2C1=O)C([2H])([2H])C([2H])([2H])N1CCN(c2ncccn2)CC1` [XVIII, (1R,2R,6S,7S)-4-{4-[4-(pyrimidin-2-yl)piperazin-1-yl]-(2,2,3,3,4,4-^2H6)butyl}-4-azatricyclo[5.2.1.0^2,6]decane-3,5-dione], the CLint scaled at 1 μM (in vitro; human, microsomes) is reported as 224 mL/min/kg, the recovery at 6 h, 0.2 μM [1] is reported as 111% and the “degree … compared to tandospirone” value (human plasma proteins) is reported as “statistically significant lower degree of protein binding”. It also gave a fraction unbound at 6 h, 0.2 μM (human plasma proteins; [6]) of 0.47.

For `[2H]c1cnc(N2CCN(C([2H])([2H])CCCN3C(=O)[C@@H]4[C@H](C3=O)[C@H]3C[C@@H]4C([2H])C3[2H])CC2)nc1` (stereo partly drawn) [VII, (1R,2R,6S,7S)-4-{4-[4-((5-^2H)pyrimidin-2-yl)piperazin-1-yl]-(4,4-^2H2)butyl}-(8,9-^2H2)-4-azatricyclo[5.2.1.0^2,6]decane-3,5-dione], the CLint scaled at 1 μM (in vitro; human, microsomes) was 231 mL/min/kg, the recovery at 6 h, 0.2 μM [1] was 94% and the fraction unbound at 6 h, 0.2 μM (human plasma proteins; [6]) was 0.31.

In the case of `O=C1[C@@H]2[C@H]3CC[C@H](C3)[C@@H]2C(=O)N1CCCCN1CCN(c2ncccn2)CC1` [Tandospirone, (1R,2R,6S,7S)-4-{4-[4-(pyrimidin-2-yl)piperazin-1-yl]butyl}-4-azatricyclo[5.2.1.0^2,6]decane-3,5-dione], the “elimination half-life in the systemic circulation” value [3] is given as 1 to 2 h, the Papp A→B at 150 min, 2 μM [2] is given as 30 ×10⁻⁶ cm/s and the recovery at 150 min, 2 μM (MDR1 (P-gp); MDCK-MDR1 cell monolayer) is given as 107%. The CLint scaled at 1 μM (in vitro; human, microsomes) was 282 mL/min/kg, the “unbound fraction reported in the literature” value (plasma proteins) was 30.4% and the recovery at 6 h, 0.2 μM [1] was 82%. For the same compound, the “Protein binding (%)” value (human plasma proteins; 0.2 μM, equilibrium dialysis, 37° C., n=3) was 70% and the fraction unbound at 6 h, 0.2 μM (human plasma proteins; human, pH 7.4, read-out: observed unbound fraction) was 0.3.

In the case of `O=C1[C@@H]2[C@@H]3CC[C@@H](C3)[C@@H]2C(=O)N1CCCCN1CCN(c2ncccn2)CC1` [Tandospirone, (1R,2R,6S,7S)-4-{4-[4-(pyrimidin-2-yl)piperazin-1-yl]butyl}-4-azatricyclo[5.2.1.0^2,6]decane-3,5-dione], the intrinsic activity [4] is given as 55-85% and the Ki [5] is given as 27 ± 5 nM.

In the case of `[2H]C1C([2H])[C@@H]2C[C@H]1[C@@H]1C(=O)N(CCCC([2H])([2H])N3CCN(c4ncccn4)CC3)C(=O)[C@@H]12` (stereo partly drawn) [VI, (1R,2R,6S,7S)-4-{4-[4-(pyrimidin-2-yl)piperazin-1-yl]-(4,4-^2H2)butyl}-(8,9-^2H2)-4-azatricyclo[5.2.1.0^2,6]decane-3,5-dione], the CLint scaled at 1 μM (in vitro; human, microsomes) is reported as 240 mL/min/kg, the recovery at 6 h, 0.2 μM [1] is reported as 96% and the “degree … compared to tandospirone” value (human plasma proteins) is reported as “statistically significant lower degree of protein binding”. For the same compound, the fraction unbound at 6 h, 0.2 μM (human plasma proteins; [6]) was 0.43.
